Numbers after ± are expanded uncertainties.
Columns and labels:
[1] = 298.15 K, 101.33 kPa, Liquid; for mass density: Pycnometric method; for speed of sound: Sing-around technique in a fixed-path interferometer
[2] = xn = mol fraction of the nth substance listed; conditions: 298.15 K, 101 kPa, Liquid, Sing-around technique in a fixed-path interferometer

SMILES: CCCCOCCOCCO [3,6-dioxa-1-decanol]
- mass density [1]: 947.98 ± 1.5 kg/m3
- speed of sound [1]: 1358.9 ± 2.1 m/s

SMILES: COCCO [2-methoxyethan-1-ol]
- mass density [1]: 960.32 ± 1.5 kg/m3
- speed of sound [1]: 1343.3 ± 2.1 m/s

SMILES: CCOCCOCCO [3,6-dioxa-1-octanol] + CCCN
- speed of sound ([2]; x1 = 0.0021): 1215.3 ± 2.1 m/s
- speed of sound ([2]; x1 = 0.0048): 1215.4 ± 2.1 m/s
- speed of sound ([2]; x1 = 0.0177): 1218.7 ± 2.1 m/s
- speed of sound ([2]; x1 = 0.0374): 1223.3 ± 2.1 m/s
- speed of sound ([2]; x1 = 0.0647): 1230.5 ± 2.1 m/s
- speed of sound ([2]; x1 = 0.0909): 1236.8 ± 2.1 m/s
- speed of sound ([2]; x1 = 0.1313): 1247.7 ± 2.1 m/s
- speed of sound ([2]; x1 = 0.1669): 1257.2 ± 2.1 m/s
- speed of sound ([2]; x1 = 0.2491): 1278.4 ± 2.1 m/s
- speed of sound ([2]; x1 = 0.3135): 1293.9 ± 2.1 m/s
- speed of sound ([2]; x1 = 0.3898): 1310.7 ± 2.1 m/s
- speed of sound ([2]; x1 = 0.4519): 1322.7 ± 2.1 m/s
- speed of sound ([2]; x1 = 0.4879): 1329.1 ± 2.1 m/s
- speed of sound ([2]; x1 = 0.5348): 1337.5 ± 2.1 m/s
- speed of sound ([2]; x1 = 0.5888): 1344.5 ± 2.1 m/s
- speed of sound ([2]; x1 = 0.6314): 1349.7 ± 2.1 m/s
- speed of sound ([2]; x1 = 0.6808): 1355.5 ± 2.1 m/s
- speed of sound ([2]; x1 = 0.7314): 1359.9 ± 2.1 m/s
- speed of sound ([2]; x1 = 0.7778): 1363.7 ± 2.1 m/s
- speed of sound ([2]; x1 = 0.8381): 1367.3 ± 2.1 m/s
- speed of sound ([2]; x1 = 0.876): 1370 ± 2.1 m/s
- speed of sound ([2]; x1 = 0.9121): 1371.4 ± 2.1 m/s
- speed of sound ([2]; x1 = 0.9343): 1373.1 ± 2.1 m/s
- speed of sound ([2]; x1 = 0.9624): 1374.6 ± 2.1 m/s
- speed of sound ([2]; x1 = 0.9887): 1375.9 ± 2.1 m/s
- speed of sound ([2]; x1 = 0.9971): 1376.8 ± 2.1 m/s

SMILES: CCOCCOCCO [3,6-dioxa-1-octanol]
- mass density [1]: 983.84 ± 1.6 kg/m3
- speed of sound [1]: 1377.3 ± 2.1 m/s

SMILES: CCCN [propan-1-amine]
- mass density [1]: 712.25 ± 0.95 kg/m3
- speed of sound [1]: 1215.2 ± 2.1 m/s

SMILES: CCCCOCCOCCO [3,6-dioxa-1-decanol] + CCCN
- speed of sound ([2]; x1 = 0.0052): 1215.5 ± 2.1 m/s
- speed of sound ([2]; x1 = 0.0133): 1218.1 ± 2.1 m/s
- speed of sound ([2]; x1 = 0.0295): 1223 ± 2.1 m/s
- speed of sound ([2]; x1 = 0.0505): 1228.7 ± 2.1 m/s
- speed of sound ([2]; x1 = 0.0779): 1236.9 ± 2.1 m/s
- speed of sound ([2]; x1 = 0.1487): 1256.7 ± 2.1 m/s
- speed of sound ([2]; x1 = 0.2053): 1272.3 ± 2.1 m/s
- speed of sound ([2]; x1 = 0.2645): 1286.7 ± 2.1 m/s
- speed of sound ([2]; x1 = 0.318): 1298.6 ± 2.1 m/s
- speed of sound ([2]; x1 = 0.378): 1310.2 ± 2.1 m/s
- speed of sound ([2]; x1 = 0.4304): 1319.4 ± 2.1 m/s
- speed of sound ([2]; x1 = 0.4767): 1326 ± 2.1 m/s
- speed of sound ([2]; x1 = 0.5226): 1331.6 ± 2.1 m/s
- speed of sound ([2]; x1 = 0.5715): 1336.8 ± 2.1 m/s
- speed of sound ([2]; x1 = 0.6306): 1342.1 ± 2.1 m/s
- speed of sound ([2]; x1 = 0.6855): 1346.2 ± 2.1 m/s
- speed of sound ([2]; x1 = 0.7347): 1349.4 ± 2.1 m/s
- speed of sound ([2]; x1 = 0.7728): 1351.3 ± 2.1 m/s
- speed of sound ([2]; x1 = 0.8152): 1353.3 ± 2.1 m/s
- speed of sound ([2]; x1 = 0.87): 1355.9 ± 2.1 m/s
- speed of sound ([2]; x1 = 0.9073): 1356.7 ± 2.1 m/s
- speed of sound ([2]; x1 = 0.9289): 1357.7 ± 2.1 m/s
- speed of sound ([2]; x1 = 0.9504): 1358.3 ± 2.1 m/s
- speed of sound ([2]; x1 = 0.9663): 1358.5 ± 2.1 m/s
- speed of sound ([2]; x1 = 0.9813): 1358.7 ± 2.1 m/s

SMILES: CCCN [propan-1-amine] + COCCO
- speed of sound ([2]; x2 = 0.0036): 1215.3 ± 2.1 m/s
- speed of sound ([2]; x2 = 0.0101): 1216.4 ± 2.1 m/s
- speed of sound ([2]; x2 = 0.0272): 1218.3 ± 2.1 m/s
- speed of sound ([2]; x2 = 0.047): 1221.7 ± 2.1 m/s
- speed of sound ([2]; x2 = 0.0831): 1227.4 ± 2.1 m/s
- speed of sound ([2]; x2 = 0.1175): 1232.5 ± 2.1 m/s
- speed of sound ([2]; x2 = 0.1521): 1238.8 ± 2.1 m/s
- speed of sound ([2]; x2 = 0.1977): 1247 ± 2.1 m/s
- speed of sound ([2]; x2 = 0.2378): 1254 ± 2.1 m/s
- speed of sound ([2]; x2 = 0.2982): 1265.6 ± 2.1 m/s
- speed of sound ([2]; x2 = 0.3629): 1276.6 ± 2.1 m/s
- speed of sound ([2]; x2 = 0.4188): 1285.8 ± 2.1 m/s
- speed of sound ([2]; x2 = 0.474): 1294.1 ± 2.1 m/s
- speed of sound ([2]; x2 = 0.5181): 1299.6 ± 2.1 m/s
- speed of sound ([2]; x2 = 0.5862): 1307.8 ± 2.1 m/s
- speed of sound ([2]; x2 = 0.6459): 1314.6 ± 2.1 m/s
- speed of sound ([2]; x2 = 0.7102): 1321.5 ± 2.1 m/s
- speed of sound ([2]; x2 = 0.799): 1329.7 ± 2.1 m/s
- speed of sound ([2]; x2 = 0.8253): 1331.6 ± 2.1 m/s
- speed of sound ([2]; x2 = 0.8642): 1334.2 ± 2.1 m/s
- speed of sound ([2]; x2 = 0.8918): 1336.2 ± 2.1 m/s
- speed of sound ([2]; x2 = 0.908): 1338 ± 2.1 m/s
- speed of sound ([2]; x2 = 0.9316): 1339.5 ± 2.1 m/s
- speed of sound ([2]; x2 = 0.9621): 1341.5 ± 2.1 m/s
- speed of sound ([2]; x2 = 0.9824): 1342.9 ± 2.1 m/s
- speed of sound ([2]; x2 = 0.9932): 1343.4 ± 2.1 m/s
- speed of sound ([2]; x2 = 0.9989): 1343.5 ± 2.1 m/s

SMILES: CCOCCOCCOCC [diethylene glycol diethyl ether]
- mass density [1]: 902.76 ± 1.4 kg/m3
- speed of sound [1]: 1241.9 ± 2.1 m/s

SMILES: CCCCOCCOCCOCCCC [5,8,11-trioxapentadecane]
- mass density [1]: 878.55 ± 1.3 kg/m3
- speed of sound [1]: 1270.1 ± 2.1 m/s
